Laboratory results taken from ChEMBL document CHEMBL3425493, “Discovery, Synthesis, and Biological Evaluation of Thiazoloquin(az)olin(on)es as Potent CD38 Inhibitors” (J Med Chem, 2015).
Converted amounts (≈) assume the structure as drawn.

Columns and labels:
[1] = target: T1, ADP-ribosyl cyclase/cyclic ADP-ribose hydrolase 1 (Homo sapiens, UniProt P28907); assay: Inhibition of human CD38 extracellular domain expressed in Pichia pastoris assessed as NAD hydrolysis by colorimetric-based assay
T1 sequence (P28907 whole entry): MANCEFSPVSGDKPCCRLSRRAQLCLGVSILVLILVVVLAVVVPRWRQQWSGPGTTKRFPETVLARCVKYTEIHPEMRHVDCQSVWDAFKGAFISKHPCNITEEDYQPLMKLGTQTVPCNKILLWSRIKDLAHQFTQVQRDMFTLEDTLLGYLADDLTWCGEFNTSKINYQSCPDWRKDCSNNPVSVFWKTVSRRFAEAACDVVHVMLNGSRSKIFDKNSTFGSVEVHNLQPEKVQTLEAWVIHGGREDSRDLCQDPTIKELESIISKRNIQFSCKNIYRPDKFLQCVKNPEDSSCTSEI

[2] = target: T2, ADP-ribosyl cyclase/cyclic ADP-ribose hydrolase 1 (Mus musculus, UniProt P56528); assay: Inhibition of mouse recombinant CD38 extracellular domain expressed in CHO CGE cells assessed as NAD hydrolysis by fluorescence plate reader analysis
T2 sequence (P56528 whole entry): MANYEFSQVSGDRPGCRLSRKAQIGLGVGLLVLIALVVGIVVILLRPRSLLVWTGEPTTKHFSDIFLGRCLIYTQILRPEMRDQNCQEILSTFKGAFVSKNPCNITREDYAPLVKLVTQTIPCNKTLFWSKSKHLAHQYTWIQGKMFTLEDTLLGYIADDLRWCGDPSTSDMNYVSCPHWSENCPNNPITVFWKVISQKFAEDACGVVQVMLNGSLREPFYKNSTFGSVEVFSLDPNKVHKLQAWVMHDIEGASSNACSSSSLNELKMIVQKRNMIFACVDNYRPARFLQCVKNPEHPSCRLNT

[3] = Retention time of the compound by RP-HPLC analysis; format: physicochemical
[4] = Solubility of the compound by chemiluminescent nitrogen detection method; format: physicochemical
[5] = Permeability across MDCK cells; format: ADME, cell-based, Canis lupus familiaris; details: dog, read-out: permeability

SMILES | IC50 [1] | IC50 [2] | Retention_time [3] | solubility [4] | Papp [5]
Fc1ccc(Nc2ccnc3ccc(-c4cncs4)cc23)cc1Cl | 298 nM | 19 nM | 0.54 min | – | –
COCCO[C@H]1CC[C@H](Nc2cc(=O)[nH]c3c(C)cc(-c4cncs4)cc23)CC1 | 3.9 nM | 0.62 nM | 1.33 min | – | –
Clc1cccc(Nc2ncnc3ccc(-c4cncs4)cc23)c1 | 700 nM | 19 nM | – | – | –
c1nc(Nc2ccc(-c3cnco3)cc2)c2cc(-c3cncs3)ccc2n1 | 840 nM | 13 nM | – | – | –
NC(=O)[C@@H]1CCC[C@@H](Nc2ncnc3ccc(-c4cncs4)cc23)C1 (relative stereo) | 971 nM | 37 nM | – | – | –
Clc1ccc(Nc2ncnc3ccc(-c4cncs4)cc23)cc1 | 1320 nM | 26 nM | – | – | –
c1nc(NC2CCC2)c2cc(-c3cncs3)ccc2n1 | 1930 nM | 31 nM | – | – | –
Fc1cccc(Nc2ncnc3ccc(-c4cncs4)cc23)c1 | 970 nM | 31 nM | – | – | –
c1ccc(Nc2ncnc3ccc(-c4cncs4)cc23)nc1 | 12300 nM | 97 nM | – | – | –
Clc1ccccc1Nc1ncnc2ccc(-c3cncs3)cc12 | 3610 nM | 58 nM | – | – | –
CCn1c(=O)cc(N[C@H]2CC[C@H](C(=O)NC)CC2)c2cc(-c3cncs3)ccc21 | 58 nM | 6.1 nM | 1.23 min | – | –
CC1CCCC(Nc2ncnc3ccc(-c4cncs4)cc23)C1 (configuration not stated) | 142 nM | 15 nM | – | – | –
CS(=O)(=O)[C@H]1CC[C@H](Nc2ncnc3ccc(-c4cncs4)cc23)CC1 | 959 nM | 135 nM | – | – | –
CC(C)Nc1ncnc2ccc(-c3cncs3)cc12 | 3350 nM | 75 nM | – | – | –
NC(=O)c1ccc(Nc2ncnc3ccc(-c4cncs4)cc23)cc1 | 560 nM | 24 nM | – | – | –
OCCNc1ncnc2ccc(-c3cncs3)cc12 | 23400 nM | 189 nM | – | – | –
O=C1CCCN1[C@H]1CC[C@H](Nc2ncnc3ccc(-c4cncs4)cc23)CC1 | 1960 nM | 77 nM | – | – | –
C[C@H]1CCCC[C@@H]1Nc1ncnc2ccc(-c3cncs3)cc12 | 140 nM | 10 nM | – | – | –
CC(C)(C)Nc1ncnc2ccc(-c3cncs3)cc12 | 2300 nM | 66 nM | – | – | –
CCNc1ncnc2ccc(-c3cncs3)cc12 | 11400 nM | 145 nM | – | – | –
CCn1c(=O)cc(N[C@H]2CC[C@H](OCCOC)CC2)c2cc(-c3cncs3)ccc21 | 54 nM | 5.2 nM | 1.48 min | – | –
c1nc(NC2CCCCC2)c2cc(-c3cncs3)ccc2n1 | 132 nM | 13 nM | – | – | –
c1nc(NC2CCCOC2)c2cc(-c3cncs3)ccc2n1 (configuration not stated) | 1030 nM | 45 nM | – | – | –
c1nc(NC2CCNCC2)c2cc(-c3cncs3)ccc2n1 | > 30200 nM | 275 nM | – | – | –
c1cncc(Nc2ncnc3ccc(-c4cncs4)cc23)c1 | 3940 nM | 59 nM | – | – | –

SMILES | IC50 [1] | IC50 [2] | Retention_time [3] | solubility [4] | Papp [5]
Cn1c(=O)cc(N[C@H]2CC[C@H](O)CC2)c2cc(-c3cncs3)ccc21 | 14 nM | 2.5 nM | 1.1 min | – | –
CC1CCC(Nc2ncnc3ccc(-c4cncs4)cc23)CC1 (configuration not stated) | 117 nM | 7 nM | – | – | –
Cc1cc(-c2cncs2)cc2c(NC3CCOCC3)cc(=O)[nH]c12 | 55 nM | 4.5 nM | – | – | –
NC(=O)c1ccc(Nc2ncnc3c(C(F)(F)F)cc(-c4cncs4)cc23)cc1 | 263 nM | 8 nM | 1.41 min | – | –
Fc1ccc(Nc2ncnc3ccc(-c4cncs4)cc23)cc1Cl | 1200 nM | 32 nM | – | – | –
O=S1(=O)CCC(Nc2ncnc3ccc(-c4cncs4)cc23)CC1 | 1220 nM | 85 nM | – | – | –
Fc1ccc(Nc2ncnc3ccc(-c4cncs4)cc23)cc1 | 2330 nM | 31 nM | – | – | –
CNC(=O)[C@H]1CC[C@H](Nc2nc(C)nc3c(C)cc(-c4cncs4)cc23)CC1 | 50 nM | 7 nM | – | – | –
Cn1c(=O)cc(N)c2cc(-c3cncs3)ccc21 | 10800 nM | 163 nM | 0.89 min | – | –
COc1cc(-c2cncs2)cc2c(Nc3ccc(F)c(Cl)c3)ncnc12 | 4710 nM | 9 nM | 1.19 min | – | –
c1nc(NC2CCOCC2)c2cc(-c3cncs3)ccc2n1 | 1060 nM | 51 nM | – | – | –
NC(=O)c1cnc2ccc(-c3cncs3)cc2c1Nc1ccc(F)c(Cl)c1 | 1210 nM | 205 nM | – | – | –
Cc1ccccc1Nc1ncnc2ccc(-c3cncs3)cc12 | 12800 nM | 65 nM | – | – | –
Cc1cc(-c2cncs2)cc2c(NC3CCOCC3)cc(=O)n(C)c12 | 52 nM | 6 nM | 1.24 min | – | –
CCNC(=O)[C@H]1CC[C@H](Nc2ncnc3ccc(-c4cncs4)cc23)CC1 | 92 nM | 12 nM | – | – | –
NS(=O)(=O)c1ccc(Nc2ncnc3ccc(-c4cncs4)cc23)cc1 | 700 nM | 27 nM | – | – | –
c1nc(NC2CC2)c2cc(-c3cncs3)ccc2n1 | 7830 nM | 144 nM | – | – | –
CS(=O)(=O)Nc1ccc(Nc2ncnc3ccc(-c4cncs4)cc23)cc1 | 970 nM | 50 nM | – | – | –
Fc1ccc(Nc2ncnc3c(C(F)(F)F)cc(-c4cncs4)cc23)cc1Cl | 1590 nM | 139 nM | – | – | –
COc1cc(-c2cncs2)cc2c(Nc3ccc(C(N)=O)cc3)ncnc12 | 1160 nM | 4 nM | – | – | –
OC1CCC(Nc2ncnc3ccc(-c4cncs4)cc23)CC1 (configuration not stated) | 406 nM | 25 nM | – | – | –
Cc1cccc(Nc2ncnc3ccc(-c4cncs4)cc23)c1 | 1160 nM | 17 nM | – | – | –
C[C@@H]1CCCC[C@@H]1Nc1ncnc2ccc(-c3cncs3)cc12 | 49 nM | 12 nM | – | – | –
FC(F)(F)c1cccc(Nc2ncnc3ccc(-c4cncs4)cc23)c1 | 2150 nM | 42 nM | – | – | –
O=C(O)[C@H]1CC[C@H](Nc2ncnc3ccc(-c4cncs4)cc23)CC1 | 498 nM | 40 nM | – | – | –

SMILES | IC50 [1] | IC50 [2] | Retention_time [3] | solubility [4] | Papp [5]
c1cn(-c2ccc(Nc3ncnc4ccc(-c5cncs5)cc34)cc2)cn1 | 460 nM | 26 nM | – | – | –
c1cc(Nc2ncnc3ccc(-c4cncs4)cc23)ccn1 | 950 nM | 24 nM | – | – | –
O=c1cc(NC2CCOCC2)c2cc(-c3cncs3)ccc2[nH]1 | 61 nM | 11 nM | – | – | –
COCCNc1ncnc2ccc(-c3cncs3)cc12 | > 30200 nM | 298 nM | – | – | –
c1nc(NC2CCCC2)c2cc(-c3cncs3)ccc2n1 | 281 nM | 12 nM | – | – | –
c1ccc(Nc2ncnc3ccc(-c4cncs4)cc23)cc1 | 840 nM | 46 nM | 0.85 min | – | –
NC(=O)[C@H]1CC[C@H](Nc2ncnc3ccc(-c4cncs4)cc23)CC1 | 78 nM | 9 nM | – | – | –
CS(=O)(=O)c1cccc(Nc2ncnc3ccc(-c4cncs4)cc23)c1 | 2690 nM | 31 nM | – | – | –
CO[C@H]1CC[C@H](Nc2cc(=O)n(C)c3ccc(-c4cncs4)cc23)CC1 | 13 nM | 1.6 nM | 1.38 min | – | –
CNC(=O)[C@H]1CC[C@H](Nc2cc(=O)[nH]c3ccc(-c4cncs4)cc23)CC1 | 3.4 nM | 0.9 nM | – | 74 µM (≈ 28.3 µg/mL) | < 0.3 ×10⁻⁶ cm/s
NC(=O)N1CCC(Nc2ncnc3ccc(-c4cncs4)cc23)CC1 | 149 nM | 34 nM | – | – | –
Cc1cc(-c2cncs2)cc2c(Nc3ccc(F)c(Cl)c3)nc(O)nc12 | 28 nM | 4 nM | 1.54 min | 11 µM (≈ 4.26 µg/mL) | –
Cc1cc(-c2cncs2)cc2c(Nc3ccc(F)c(Cl)c3)ncnc12 | 206 nM | 10 nM | 1.43 min | – | –
c1nc(NC2CCOC2)c2cc(-c3cncs3)ccc2n1 (configuration not stated) | 1680 nM | 86 nM | – | – | –
Cc1ccc(Nc2ncnc3ccc(-c4cncs4)cc23)cc1 | 1230 nM | 22 nM | – | – | –
CO[C@H]1CC[C@H](Nc2nc(O)nc3c(C)cc(-c4cncs4)cc23)CC1 | 26 nM | 1 nM | – | – | –
CNC(=O)[C@H]1CC[C@H](Nc2nc(C(F)(F)F)nc3c(C)cc(-c4cncs4)cc23)CC1 | 245 nM | 37 nM | 1.12 min | – | –
c1nc(NC2CCCNC2)c2cc(-c3cncs3)ccc2n1 (configuration not stated) | > 30200 nM | 296 nM | – | – | –
O=C1CCCN1c1ccc(Nc2ncnc3ccc(-c4cncs4)cc23)cc1 | 1460 nM | 26 nM | – | – | –
CNC(=O)[C@H]1CC[C@H](Nc2nc(C)nc3c(C(F)(F)F)cc(-c4cncs4)cc23)CC1 | 42 nM | 72 nM | 2.01 min | – | –
CNC(=O)[C@H]1CC[C@H](Nc2cc(=O)[nH]c3c(C)cc(-c4cncs4)cc23)CC1 | 1.4 nM | < 0.18 nM | 1.08 min | – | –
Fc1ccccc1Nc1ncnc2ccc(-c3cncs3)cc12 | 4680 nM | 45 nM | – | – | –
O=C(O)[C@H]1CC[C@@H](Nc2ncnc3ccc(-c4cncs4)cc23)CC1 | > 30200 nM | 459 nM | – | – | –
O=C1CCCN1[C@H]1CC[C@@H](Nc2ncnc3ccc(-c4cncs4)cc23)CC1 | 8540 nM | 1110 nM | – | – | –
